Test results as given in US20160281050A1, “METHODS FOR TREATING A CULTURE OF HAEMATOCOCCUS PLUVIALIS FOR CONTAMINATION USING SALT AND HYDROGEN PEROXIDE” (HELIAE DEVELOPMENT LLC, priority 2015, published 2016).
Read-outs that look alike come from different tables or passages of the source.

Assays:
chytrids [1] = conditions: for % Chytrids Infection: 0.0105 mL/L every 6 hours
Source text: Three 3,000 L open raceway pond bioreactor #'s MP1, MP2, & MP3 with paddlewheel mixing disposed outdoors were inoculated with cultures of green swimmer Haematococcus pluvialis (Strain 2) cells from outdoor reactor #2310 at a dilution ratio of 1 part culture samples to 3 parts reddening media containing 1 ppt salt (NaCl). […] MP2 was not treated with hydrogen peroxide to serve as an untreated control for comparison purposes. […] After hydrogen peroxide treatments began, the percent of the cultures infected with chytrids, percent of carotenoids by UV method, and cell dry weight (g/L) were quantified daily.

chytrids [2] = system: chytrids
Source text: Culture samples of Haematococcus pluvialis (Strain 2) were collected on the second day of the culture from open raceway bioreactor #2430 operating in conditions: reactor volume of 170,000 L; Daily PAR not measured; pH of 7.3; and paddlewheel speed of 70. The culture samples were distributed into flasks for culturing, consisting of duplicate untreated controls and duplicate treatments. […] Samples were taken from the flask cultures daily to quantify % lysis and % chytrid infection and cell dry weight was quantified every other day for a duration of 11 days.

hydrogen peroxide [H2O2]
% Chytrids Infection (chytrids [1]; MP1, initial infection 20%, day 7): 23.3 ± 5.8%
% Chytrids Infection (chytrids [1]; MP1, initial infection 20%, day 8): 20.0 ± 5.0%
% Chytrids Infection (chytrids [1]; MP1, initial infection 20%, day 9): 30.0 ± 10.0%
% Chytrids Infection (chytrids [1]; MP1, initial infection 20%, day 10): 26.7 ± 2.9%
% Chytrids Infection (chytrids [1]; MP1, initial infection 20%, day 11): 61.7 ± 24.7%
% Chytrids Infection (chytrids [1]; MP1, initial infection 20%, day 12): 63.3 ± 16.1%
% Chytrids Infection (chytrids [1]; MP1, initial infection 20%, day 13): 73.3 ± 7.6%
% Chytrids Infection (chytrids [1]; MP1, initial infection 20%, day 14): 76.7 ± 17.6%
% Chytrids Infection (chytrids [1]; MP3, initial infection less than 5%, day 7): 1.7 ± 2.9%
% Chytrids Infection (chytrids [1]; MP3, initial infection less than 5%, day 8): 0.0 ± 0.0%
% Chytrids Infection (chytrids [1]; MP3, initial infection less than 5%, day 9): 1.7 ± 2.9%
% Chytrids Infection (chytrids [1]; MP3, initial infection less than 5%, day 10): 0.0 ± 0.0%
% Chytrids Infection (chytrids [1]; MP3, initial infection less than 5%, day 11): 0.0 ± 0.0%
% Chytrids Infection (chytrids [1]; MP3, initial infection less than 5%, day 12): 0.0 ± 0.0%
% Chytrids Infection (chytrids [1]; MP3, initial infection less than 5%, day 13): 3.3 ± 2.9%
% Chytrids Infection (chytrids [1]; MP3, initial infection less than 5%, day 14): 0.0 ± 0.0%
chytrids infection level (chytrids [1]; MP3 culture, below 5% when the treatments started, 1 ppt salt): below 5%
% Chytrid infection (chytrids [2]; 0.0105 mL/L 1 time per day for 3 d then every other day, day 0): 0.0 ± 0.0%
% Chytrid infection (chytrids [2]; 0.0105 mL/L 1 time per day for 3 d then every other day, day 3): 0.0 ± 0.0%
% Chytrid infection (chytrids [2]; 0.0105 mL/L 1 time per day for 3 d then every other day, day 4): 0.8 ± 1.2%
% Chytrid infection (chytrids [2]; 0.0105 mL/L 1 time per day for 3 d then every other day, day 5): 5.0 ± 2.4%
% Chytrid infection (chytrids [2]; 0.0105 mL/L 1 time per day for 3 d then every other day, day 6): 2.5 ± 1.2%
% Chytrid infection (chytrids [2]; 0.0105 mL/L 1 time per day for 3 d then every other day, day 7): 0.0 ± 0.0%
% Chytrid infection (chytrids [2]; 0.0105 mL/L 1 time per day for 3 d then every other day, day 8): 0.0 ± 0.0%
% Chytrid infection (chytrids [2]; 0.0105 mL/L 1 time per day for 3 d then every other day, day 9): 2.5 ± 3.5%
% Chytrid infection (chytrids [2]; 0.0105 mL/L 1 time per day for 3 d then every other day, day 10): 1.7 ± 2.4%
% Chytrid infection (chytrids [2]; 0.0105 mL/L 1 time per day, day 0): 0.0 ± 0.0%
% Chytrid infection (chytrids [2]; 0.0105 mL/L 1 time per day, day 3): 0.0 ± 0.0%
% Chytrid infection (chytrids [2]; 0.0105 mL/L 1 time per day, day 4): 0.8 ± 1.2%
% Chytrid infection (chytrids [2]; 0.0105 mL/L 1 time per day, day 5): 0.8 ± 1.2%
% Chytrid infection (chytrids [2]; 0.0105 mL/L 1 time per day, day 6): 1.7 ± 2.4%
% Chytrid infection (chytrids [2]; 0.0105 mL/L 1 time per day, day 7): 3.3 ± 0.0%
% Chytrid infection (chytrids [2]; 0.0105 mL/L 1 time per day, day 8): 0.0 ± 0.0%
% Chytrid infection (chytrids [2]; 0.0105 mL/L 1 time per day, day 9): 0.8 ± 1.2%
% Chytrid infection (chytrids [2]; 0.0105 mL/L 1 time per day, day 10): 0.0 ± 0.0%
% Chytrid infection (chytrids [2]; 0.0140 mL/L 1 time per day for 3 d then every other day, day 0): 0.0 ± 0.0%
% Chytrid infection (chytrids [2]; 0.0140 mL/L 1 time per day for 3 d then every other day, day 3): 0.0 ± 0.0%
% Chytrid infection (chytrids [2]; 0.0140 mL/L 1 time per day for 3 d then every other day, day 4): 0.0 ± 0.0%
% Chytrid infection (chytrids [2]; 0.0140 mL/L 1 time per day for 3 d then every other day, day 5): 0.0 ± 0.0%
% Chytrid infection (chytrids [2]; 0.0140 mL/L 1 time per day for 3 d then every other day, day 6): 1.7 ± 2.4%
% Chytrid infection (chytrids [2]; 0.0140 mL/L 1 time per day for 3 d then every other day, day 7): 0.0 ± 0.0%
% Chytrid infection (chytrids [2]; 0.0140 mL/L 1 time per day for 3 d then every other day, day 8): 0.8 ± 1.2%
% Chytrid infection (chytrids [2]; 0.0140 mL/L 1 time per day for 3 d then every other day, day 9): 0.0 ± 0.0%
% Chytrid infection (chytrids [2]; 0.0140 mL/L 1 time per day for 3 d then every other day, day 10): 0.0 ± 0.0%
% Chytrid infection (chytrids [2]; 0.0140 mL/L 1 time per day, day 0): 0.0 ± 0.0%
% Chytrid infection (chytrids [2]; 0.0140 mL/L 1 time per day, day 3): 0.0 ± 0.0%
% Chytrid infection (chytrids [2]; 0.0140 mL/L 1 time per day, day 4): 0.0 ± 0.0%
% Chytrid infection (chytrids [2]; 0.0140 mL/L 1 time per day, day 6): 0.0 ± 0.0%
% Chytrid infection (chytrids [2]; 0.0140 mL/L 1 time per day, day 7): 1.7 ± 2.4%
% Chytrid infection (chytrids [2]; 0.0140 mL/L 1 time per day, day 8): 0.8 ± 1.2%
% Chytrid infection (chytrids [2]; 0.0140 mL/L 1 time per day, day 9): 0.8 ± 1.2%
% Chytrid infection (chytrids [2]; 0.0140 mL/L 1 time per day, day 10): 0.0 ± 0.0%
% Chytrid infection (chytrids [2]; 0.0175 mL/L 1 time per day for 2 d then every other, day 0): 0.0 ± 0.0%
% Chytrid infection (chytrids [2]; 0.0175 mL/L 1 time per day for 2 d then every other, day 3): 0.0 ± 0.0%
% Chytrid infection (chytrids [2]; 0.0175 mL/L 1 time per day for 2 d then every other, day 4): 0.0 ± 0.0%
% Chytrid infection (chytrids [2]; 0.0175 mL/L 1 time per day for 2 d then every other, day 5): 0.0 ± 0.0%
% Chytrid infection (chytrids [2]; 0.0175 mL/L 1 time per day for 2 d then every other, day 6): 0.8 ± 1.2%
chytrid infection (chytrids [2]; all treated flasks): under 10%
